Data: patent US20230150981A1, “N-HETEROARYLALKYL-2-(HETEROCYCLYL AND HETEROCYCLYLMETHYL) ACETAMIDE DERIVATIVES AS SSTR4 AGONISTS” (Takeda Pharmaceutical Compnay Limited, priority 2020, published 2023)

biological target: T1, SSTR4 (Homo sapiens, UniProt P31391); assay: Inhibition of forskolin stimulated cAMP in CHO-K1 cells overexpressing SSTR4; type: cell-based; settings: read-out: SSTR4 Activity pEC50 (converted)
T1 construct: host or cells: CHO-K1
Procedure: Inhibition of Forskolin Stimulated cAMP in Cells Overexpressing SSTR4
This cell-based assay measures the ability of compounds to inhibit forskolin stimulated cAMP in CHO-K1 cells overexpressing SSTR4. CHO-K1 cells overexpressing SSTR4 (CHO-SSTR4) are purchased from DiscoveRx (product code 95-0059C2). The CHO-SSTR4 cells are maintained in F12K media with 10% Fetal Bovine Serum (Hyclone), 1% Pen/Strep (Life Technologies), and 800 μg/mL G418 (Life Technologies). To perform the assay, 3000 cells are plated per well in white 384-well plate (Corning 3570) in 50 μL complete media and the cells are allowed to attach for 16 hours in a 37° C., 5% CO2 incubator. The next day, the culture media is removed from the cells and the cells are washed (added then removed) with Krebs Ringer Buffer (ZenBio, KRB-1000 mL). Test compounds are suspended in DMSO and diluted in stimulation buffer: Krebs Ringer Buffer plus 0.5% BSA (Roche), 300 μM IBMX (Sigma), and 350 nM forskolin (Sigma). The cells are incubated in 10 μL compound/stimulation buffer for 30 minutes at room temperature. Cellular cAMP levels are detected with a HTRF LANCE Ultra cAMP kit (Perkin Elmer, catalog number TRF0264).
The assay is performed in accordance with the manufacturer's instructions. Five μL of diluted Eu-W8044 labeled streptavidin (dilution: 1:50 in cAMP Detection Buffer) is added to each well. Then 5 μL of diluted biotin cAMP (dilution: 1:150 in cAMP Detection Buffer) is added to each well. The plates are covered and allowed to incubate for 60 minutes at room temperature on a shaker. HTRF (665 nm/615 nm) is read on a Perkin Elmer ENVISION plate reader. The pEC50 values are generated using Activity Base for Screening Data Management.

T1 sequence (P31391 whole entry): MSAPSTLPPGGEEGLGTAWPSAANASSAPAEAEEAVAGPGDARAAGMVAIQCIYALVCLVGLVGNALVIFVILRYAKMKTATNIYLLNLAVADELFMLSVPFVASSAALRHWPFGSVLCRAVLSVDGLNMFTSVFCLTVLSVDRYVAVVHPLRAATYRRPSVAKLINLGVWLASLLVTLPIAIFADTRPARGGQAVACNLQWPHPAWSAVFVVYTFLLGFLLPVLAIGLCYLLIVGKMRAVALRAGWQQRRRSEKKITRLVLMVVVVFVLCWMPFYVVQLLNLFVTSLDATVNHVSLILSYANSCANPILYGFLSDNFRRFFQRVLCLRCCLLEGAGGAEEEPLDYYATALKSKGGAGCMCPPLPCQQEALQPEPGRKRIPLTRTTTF

Compared with `Cc1cccnc1OCC(C)(C)NC(=O)[C@H](C)[C@@H]1CCCN1C` (racemic) [Example 66, (R)-N-(2-methyl-1-((3-methylpyridin-2-yl)oxy)propan-2-yl)-2-((S)-1-methylpyrrolidin-2-yl)propanamide and (S)-N-(2-methyl-1-((3-methylpyridin-2-yl)oxy)propan-2-yl)-2-((R)-1-methylpyrrolidin-2-yl)propanamide], `Cc1cccnc1OCC(C)(C)NC(=O)[C@@H](C)[C@@H]1CCCN1C` (racemic) [Example 67, (S)-N-(2-methyl-1-((3-methylpyridin-2-yl)oxy)propan-2-yl)-2-((S)-1-methylpyrrolidin-2-yl)propanamide and (R)-N-(2-methyl-1-((3-methylpyridin-2-yl)oxy)propan-2-yl)-2-((R)-1-methylpyrrolidin-2-yl)propanamide] is 10-fold lower in EC50: 15.8 nM for the first, 1.58 nM for the second.

Compared with `COc1ccccc1C(C)(C)NC(=O)[C@@H](C)CN1CCCC1` (single isomer, unassigned) [Example 76], `C[C@@H](CN1CCCC1)C(=O)NC(C)(C)c1ccccc1Cl` (single isomer, unassigned) [Example 137] is 2-fold lower in EC50: 631 nM for the first, 316 nM for the second.

Compared with `Cc1cccnc1OCC1(NC(=O)[C@@H](C)[C@H]2CCCN2C)CC1` (single isomer, unassigned) [Example 126], `Cc1cccnc1OCC1(NC(=O)[C@@H](C)[C@@H]2CCCN2C)CC1` (single isomer, unassigned) [Example 176] is 3.2-fold lower in EC50: 398 nM for the first, 126 nM for the second.

`CN1CCC[C@H]1CC(=O)NC(C)(C)[C@H]1CCc2ccccc2O1` (single isomer, unassigned) [Example 129] and `CN1CCC[C@@H]1CC(=O)NC(C)(C)[C@H]1CCc2ccccc2O1` (single isomer, unassigned) [Example 130] are within 1.5-fold of each other in EC50: 398 nM for the first, 316 nM for the second.

Going from `C[C@H](CN1CCC1)C(=O)NC(C)(C)c1ccccc1Cl` (single isomer, unassigned) [Example 133] to `Cc1ccccc1C(C)(C)NC(=O)[C@@H](C)CN1CCC1` (single isomer, unassigned) [Example 141], the EC50 rises from 200 nM to 398 nM (2-fold).

First: COc1ccc(C(C)(C)NC(=O)[C@@H](C)CN2CCC2)cc1 (single isomer, unassigned) [Example 139]
Second: Cc1ccc(C(C)(C)NC(=O)[C@H](C)CN2CCC2)cc1 (single isomer, unassigned) [Example 148]
The EC50 of the first is 2.5-fold higher: 1260 nM for the first, 501 nM for the second.

`Cc1c(F)cccc1C(C)(C)NC(=O)[C@@H](C)CN1CCC1` (single isomer, unassigned) [Example 143] and `COc1c(F)cccc1C(C)(C)NC(=O)[C@@H](C)CN1CCC1` (single isomer, unassigned) [Example 172] are within 1.5-fold of each other in EC50: 200 nM for the first, 251 nM for the second.

Compared with `Cc1cccc(C(C)(C)NC(=O)[C@H](C)CN2CCC2)c1Cl` (single isomer, unassigned) [Example 144], `C[C@@H](CN1CCC1)C(=O)NC(C)(C)c1ccccc1F` (single isomer, unassigned) [Example 157] is 25-fold higher in EC50: 100 nM for the first, 2510 nM for the second.

First: C[C@H](CN1CCC1)C(=O)NC(C)(C)c1cccc(F)c1 (single isomer, unassigned) [Example 152]
Second: CC[C@@H](CN1CCC1)C(=O)NC(C)(C)c1cccc(F)c1 (single isomer, unassigned) [Example 185]
The EC50 of the first is 13-fold higher: 1000 nM for the first, 79.4 nM for the second.

Compared with `C[C@H](CN1CCC1)C(=O)NC(C)(C)c1ccc(Cl)cc1` (single isomer, unassigned) [Example 154], `CC[C@H](CN1CCC1)C(=O)NC(C)(C)c1ccc(C)cc1` (single isomer, unassigned) [Example 186] is 6.3-fold lower in EC50: 1260 nM for the first, 200 nM for the second.

First: O=C(CCN1CCC1)N[C@@H](c1cc(F)ccc1F)C(F)F (single isomer, unassigned) [Example 168]
Second: O=C(CCN1CCCC1)N[C@@H](c1cccc(Cl)c1)C(F)F (single isomer, unassigned) [Example 197]
The EC50 of the first is higher: > 5010 nM for the first, 2000 nM for the second.

Compared with `Cc1ccc([C@@H](CF)NC(=O)CCN2CCC2)cc1` (single isomer, unassigned) [Example 174], `C[C@@H](CN1CCC1)C(=O)N[C@@H](CF)c1ccccc1` (single isomer, unassigned) [Example 206] is lower in EC50: > 10000 nM for the first, 200 nM for the second.

Compared with `Cc1cccnc1OCC1(NC(=O)[C@H](C)[C@H]2CCCN2C)CC1` (single isomer, unassigned) [Example 177], `Cc1cccnc1OCC1(NC(=O)C[C@@H]2CCCN2C)CC1` [Example 54, (S)-N-(1-(((3-methylpyridin-2-yl)oxy)methyl)cyclopropyl)-2-(1-methylpyrrolidin-2-yl)acetamide] is lower in EC50: > 10000 nM for the first, 251 nM for the second.

Compared with `CC[C@H](CN1CCC1)C(=O)NC(C)(C)c1ccccc1F` (single isomer, unassigned) [Example 199], `CN1CCC[C@H]1CC(=O)NC(C)(C)c1cc(Cl)ccc1Cl` [Example 33, (S)-N-(2-(2,5-dichlorophenyl)propan-2-yl)-2-(1-methylpyrrolidin-2-yl)acetamide] is lower in EC50: > 10000 nM for the first, 79.4 nM for the second.

Going from `Cn1nc(C(C)(C)NC(=O)CC23CCCN2CCC3)c2ccccc21` [Example 10, N-(2-(1-methyl-1H-indazol-3-yl)propan-2-yl)-2-(tetrahydro-1H-pyrrolizin-7a(5H)-yl)acetamide] to `CN1CCCCC1CC(=O)NC(C)(C)c1nccc2c1cnn2C` (centres unmarked) [Example 26, N-(2-(1-methyl-1H-pyrazolo[4,3-c]pyridin-4-yl)propan-2-yl)-2-(1-methylpiperidin-2-yl)acetamide], the EC50 rises from 200 nM to 2510 nM (13-fold).

Going from `CN1CCCC1CC(=O)NC(C)(C)c1cccc(Cl)c1` (centres unmarked) [Example 12, N-(2-(3-chlorophenyl)propan-2-yl)-2-(1-methylpyrrolidin-2-yl)acetamide] to `CN1CCCC1CC(=O)NC(C)(C)c1nccc2occc12` (centres unmarked) [Example 25, N-(2-(furo[3,2-c]pyridin-4-yl)propan-2-yl)-2-(1-methylpyrrolidin-2-yl)acetamide], the EC50 falls from 126 nM to 79.4 nM (1.6-fold).

First: CN1Cc2ccccc2C[C@H]1CC(=O)NC(C)(C)c1nccc2ccccc12 [Example 20, (S)-N-(2-(isoquinolin-1-yl)propan-2-yl)-2-(2-methyl-1,2,3,4-tetrahydroisoquinolin-3-yl)acetamide]
Second: CN1CCCCC1CC(=O)NC(C)(C)COc1ncccc1C(F)(F)F (centres unmarked) [Example 29, N-(2-methyl-1-((3-(trifluoromethyl)pyridin-2-yl)oxy)propan-2-yl)-2-(1-methylpiperidin-2-yl)acetamide]
The EC50 of the first is 20-fold higher: 2000 nM for the first, 100 nM for the second.

Compared with `C[C@H](NC(=O)C[C@@H]1CCCN1C)c1ccc(Cl)cc1` [Example 31, N-((S)-1-(4-chlorophenyl)ethyl)-2-((S)-1-methylpyrrolidin-2-yl)acetamide], `C[C@H](NC(=O)C[C@H]1CCCN1C)c1ccc(Cl)cc1` [Example 36, N-((S)-1-(4-chlorophenyl)ethyl)-2-((R)-1-methylpyrrolidin-2-yl)acetamide] is 1.6-fold higher in EC50: 316 nM for the first, 501 nM for the second.

First: C[C@H](NC(=O)C[C@@H]1CCCN1C)c1ccc(F)cc1 [Example 32, N-((S)-1-(4-fluorophenyl)ethyl)-2-((S)-1-methylpyrrolidin-2-yl)acetamide]
Second: C[C@H](NC(=O)C[C@H]1CCCN1C)c1ccc(F)cc1 [Example 37, N-((S)-1-(4-fluorophenyl)ethyl)-2-((R)-1-methylpyrrolidin-2-yl)acetamide]
The EC50 of the first is 2-fold lower: 501 nM for the first, 1000 nM for the second.

First: CCN1CCC[C@H]1CC(=O)NC(C)(C)COc1ncccc1C(F)(F)F [Example 51, (S)-2-(1-ethylpyrrolidin-2-yl)-N-(2-methyl-1-((3-(trifluoromethyl)pyridin-2-yl)oxy)propan-2-yl)acetamide]
Second: CC(C)(COc1ncccc1C(F)(F)F)NC(=O)C[C@@H]1CCCN1CCF [Example 52, (S)-2-(1-(2-fluoroethyl)pyrrolidin-2-yl)-N-(2-methyl-1-((3-(trifluoromethyl)pyridin-2-yl)oxy)propan-2-yl)acetamide]
The EC50 of the first is 4-fold lower: 126 nM for the first, 501 nM for the second.

Compared with `CC(C)(COc1ncccc1C(F)(F)F)NC(=O)C[C@@H]1CCCN1C1CC1` [Example 53, (S)-2-(1-cyclopropylpyrrolidin-2-yl)-N-(2-methyl-1-((3-(trifluoromethyl)pyridin-2-yl)oxy)propan-2-yl)acetamide], `CC(C)(COc1ncccc1C(F)(F)F)NC(=O)C[C@H]1CCCN1C1CC1` [Example 59, (R)-2-(1-cyclopropylpyrrolidin-2-yl)-N-(2-methyl-1-((3-(trifluoromethyl)pyridin-2-yl)oxy)propan-2-yl)acetamide] is 4-fold lower in EC50: 63.1 nM for the first, 15.8 nM for the second.

First: Cc1cccnc1OCC1(NC(=O)C[C@@H]2CCCN2C)CCCC1 [Example 56, (S)-N-(1-(((3-methylpyridin-2-yl)oxy)methyl)cyclopentyl)-2-(1-methylpyrrolidin-2-yl)acetamide]
Second: CC(C)(COc1ncccc1C(F)(F)F)NC(=O)C[C@H]1CCCN1CCF [Example 58, (R)-2-(1-(2-fluoroethyl)pyrrolidin-2-yl)-N-(2-methyl-1-((3-(trifluoromethyl)pyridin-2-yl)oxy)propan-2-yl)acetamide]
The EC50 of the first is 5-fold higher: 200 nM for the first, 39.8 nM for the second.
